According to article PMC9525908, “α-Crystallin chaperone mimetic drugs inhibit lens γ-crystallin aggregation: Potential role for cataract prevention” (The Journal of Biological Chemistry, 2022):
Entries after “also recorded” stand apart in the source; their conditions may differ.

What was measured:
Format in all cases: biochemical
WT-HγD crystallin = target: T1, WT-HγD crystallin (Homo sapiens, UniProt P07320); assay: Thermal unfolding of WT-HγD by fluorescence ratio (Tm); conditions: 100 μM agent, 360/320 nm ratio; 78 ± 0.1 °C without agent
T1 construct: made in house; host or cells: E. coli BL21(DE3) pLysS, pET3d vector
T1 sequence (P07320 1-174): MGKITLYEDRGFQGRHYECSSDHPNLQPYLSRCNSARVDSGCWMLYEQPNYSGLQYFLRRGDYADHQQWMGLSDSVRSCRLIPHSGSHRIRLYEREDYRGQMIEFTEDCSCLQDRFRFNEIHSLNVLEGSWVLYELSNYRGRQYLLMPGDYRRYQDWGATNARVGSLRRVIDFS
Excerpt: His-tag free recombinant HγD crystallin produced in Escherichia coli using pET3d or pET17b expression vector was used to investigate the effects of compounds C and G against thermal-induced unfolding and aggregate formation. The antiaggregation potency of drug C and G was reconfirmed by dynamic light scattering (DLS) (Fig. 2A). […] There is a decrease in the size of aggregates from as high as 7261 nm without drugs to 30.5 nm with drug C and 84.9 nm with drug G. Drug M has moderate activity with mean aggregate size of 569 nm radius (Table S2). […] Furthermore, we investigated whether these drugs can prevent thermal unfolding of HγD (Fig. 2C). […] It is the temperature at which 50% of the protein unfolds.
(§1) Thermal denaturation study was monitored using fluorescence spectroscopy. Protein solutions (10 μM) in the presence and absence of drugs or bis-ANS (100 μM) were heated continuously from 30 to 95 °C, and the fluorescence data were collected every 5 °C after 1 min equilibration at the given temperature. Unfolding data were fit to Greene and Pace’s two-state model ([82]) using GraphPad Prism software (GraphPad Software, Inc).

HγD-ox [1] = target: T2, HγD-ox (Homo sapiens, UniProt P07320); assay: Thermal unfolding (Tm) of oxidized HγD; conditions: 100 μM agent, 360/320 nm ratio; 68 ± 0.07 °C without agent
T2 construct: made in house; host or cells: Escherichia coli BL21(DE3) pLysS, pET3d vector
T2 sequence (P07320 1-174): T1 sequence (P07320 1-174)
Excerpt: (§2) In postsubmission experiments, we attempted to find mechanistic clues relevant to the use of an H2O2 oxidation step prior to the thermal stress used during the initial drug screen. For this reason, we did a comparative study of oxidized (HγD-ox) versus native HγD (HyD-nat), hypothesizing that bis-ANS would both act like the drugs and provide information on the role of exposed hydrophobicity ([40]). HγD was oxidized in diethylenetriaminepentaacetic acid […] phosphate buffer to facilitate hydroxyl radical formation and protein damage, followed by dialysis against DTPA-treated buffer to eliminate the known proaggregating effects of divalent metals ([32]) in the subsequent steps. […] Overall protective effects were more pronounced for the oxidized than nonoxidized form of HγD. […] In the hope to obtain clues on the impact of bis-ANS, drugs C, G, and M on protein aggregation status, native PAGE was performed (Fig. 3G). Polymers greater than 250 kD are present in unheated HγD-nat but only the size of 75 to 100 kD in HγD-ox. […] Other techniques will be needed to assess the relationship between drugs and aggregate size.
as §1

HγD-ox [2] = target: T2, HγD-ox; assay: Turbidity (600 nm) of oxidized HγD heated 10 min at 72 °C; conditions: 1.4 mg/ml with DTPA, 100 and 500 μM bis-ANS, 100 μM drug C, 500 μM drug M
Excerpt: as §2

Tm of HγD-nat (WT-HγD crystallin): 82 ± 0.02 °C | Tm of HγD-ox (HγD-ox [1]): 78 ± 0.1 °C
Compound: O=S(=O)(O)c1cccc2c(-c3ccc(Nc4ccccc4)c4c(S(=O)(=O)O)cccc34)ccc(Nc3ccccc3)c12 [bis-ANS, bis-8-anilino-1-naphthalene sulfonic acid]
Effect on aggregation/turbidity of HγD-ox (HγD-ox [2]): strongly suppressed; also recorded: potently inhibited aggregation
